Experimental data reported in paper PMC2362650, “Phase I and pharmacokinetic study of the topoisomerase II catalytic inhibitor fostriecin” (British Journal of Cancer, 1999).

Assay: Phase I study: toxicity graded with NCI common toxicity criteria in patients
Format: in vivo, human
Description: Fostriecin (CI-920) is a topoisomerase (topo) II catalytic activity inhibitor (Boritzki et al, 1988) (Figure 1). This novel class of topo II-targeting drugs is considered of potential value for treatment of patients with tumours resistant to classic topo II poisons, including anthracyclines and podophyllotoxins (Cummings and Smyth, 1993). The nuclear enzyme topo II is essential for the regulation of DNA conformation (reviewed in Osheroff et al, 1991). Central in its action is the formation of a complex with DNA. Stabilization of this complex by topo II poisons induces DNA damage and cell death (Froelich-Ammon and Osheroff, 1995). Decreased complex formation due to decreased topo II levels is considered to be an important mechanism of tumour-resistance to topo II poisons (Beck and Danks, 1991). The topo II catalytic inhibitor fostriecin is expected to have increased activity against tumour cells with low topo II levels and this was confirmed in in vitro studies (De Jong et al, 1991). […] Because of increased toxi- city of fostriecin in dogs compared to mice, a dose below one-third of the one-tenth mouse equivalent LD10, 2 mg m-2 day-1, was chosen as starting dose in humans (Clinical Brochure Fostriecin, 1991). […] We also performed an analysis of the human pharmacokinetics of fostriecin and ex vivo experiments to investigate if the plasma drug concentrations achieved were sufficient to inhibit a tenipo- side-resistant tumour cell line. The maximum tolerated dose (MTD) of fostriecin could not be established because drug supply was stopped prematurely. However, results of this study may provide a basis for continued clinical development of this agent. PATIENTS AND METHODS Patient selection, drug administration and evaluation Patient eligibility criteria were: histologically confirmed diagnosis of a solid tumour, no longer amenable to established forms of treatment; age 18-75 years; Eastern Cooperative Oncology Group (ECOG) performance status 2; life expectancy 12 weeks; no Phase I and pharmacokinetic study of the topoisomerase II catalytic inhibitor fostriecin RS de Jong1, NH Mulder1, DRA Uges2, DTh Sleijfer1, FJP Hoppener4, HJM Groen3, PHB Willemse1, WTA van der Graaf1 and EGE de Vries1 Departments of 1Medical Oncology, 2Pharmacy and Toxicology, and 3Pulmonary Diseases, University Hospital Groningen, The Netherlands; 4EORTC New Drug Development Office, Amsterdam, The Netherlands Summary We conducted a phase I and pharmacokinetic study of the topoisomerase II catalytic inhibitor fostriecin. Fostriecin was administered intravenously over 60 min on days 1-5 at 4-week intervals. Dose was escalated from 2 mg m-2 day-1 to 20 mg m-2 day-1 in 20 patients. Drug pharmacokinetics was analysed with high performance liquid chromatography with UV-detection. Plasma collected during drug administration was tested in vitro for growth inhibition of a teniposide-resistant small-cell lung cancer (SCLC) cell line. The predominant toxicities were elevated liver transaminases (maximum common toxicity criteria (CTC) grade 4) and serum creatinine (maximum CTC grade 2). […] Duration of elevated alanine-amino transferase (ALT) was dose-limiting in one patient at 20 mg m-2. Other frequent toxicities were grade 1-2 nausea/vomiting, fever and mild fatigue. […] A metabolite, most probably dephosphorylated fostriecin, was detected in plasma and urine. […] However, further escalation seems possible and is warranted to achieve potentially effective drug levels. Fostriecin has a short plasma half-life and longer duration of infusion should be considered. […]

[1] = 4 mg m-2, 5 patients/11 courses
[2] = 6.6 mg m-2, 3 patients/4 courses
[3] = 10 mg m-2, 3 patients/7 courses

## C[C@@](O)(/C=C/[C@H]1CC=CC(=O)O1)[C@@H](C[C@@H](O)\C=C/C=C\C=C\CO)OP(=O)(O)O [fostriecin]
2 mg m-2, 4 patients/8 courses
  CTC-grade 1 ALP: courses causing toxicity, all full-dose courses: 2
  CTC-grade 1 ALP: patients developing toxicity in first course: 1
  CTC-grade 1 ALT: courses causing toxicity, all full-dose courses: 6
  CTC-grade 1 ALT: patients developing toxicity in first course: 2
  CTC-grade 1 AST: courses causing toxicity, all full-dose courses: 2
  CTC-grade 1 AST: patients developing toxicity in first course: 2
  CTC-grade 1 GGT: courses causing toxicity, all full-dose courses: 2
  CTC-grade 1 GGT: patients developing toxicity in first course: 0
  CTC-grade 1 creatinine: courses causing toxicity, all full-dose courses: 4
  CTC-grade 1 creatinine: patients developing toxicity in first course: 2
  CTC-grade 2 ALT: courses causing toxicity, all full-dose courses: 1
  CTC-grade 2 ALT: patients developing toxicity in first course: 1
  CTC-grade 2 GGT: courses causing toxicity, all full-dose courses: 2
  CTC-grade 2 GGT: patients developing toxicity in first course: 1
[1]
  CTC-grade 1 ALP: courses causing toxicity, all full-dose courses: 3
  CTC-grade 1 ALP: patients developing toxicity in first course: 3
  CTC-grade 1 ALT: courses causing toxicity, all full-dose courses: 8
  CTC-grade 1 ALT: patients developing toxicity in first course: 4
  CTC-grade 1 AST: courses causing toxicity, all full-dose courses: 7
  CTC-grade 1 AST: patients developing toxicity in first course: 3
  CTC-grade 1 GGT: courses causing toxicity, all full-dose courses: 1
  CTC-grade 1 GGT: patients developing toxicity in first course: 1
  CTC-grade 1 creatinine: courses causing toxicity, all full-dose courses: 7
  CTC-grade 1 creatinine: patients developing toxicity in first course: 3
  CTC-grade 2 ALP: courses causing toxicity, all full-dose courses: 1
  CTC-grade 2 ALP: patients developing toxicity in first course: 0
  CTC-grade 2 ALT: courses causing toxicity, all full-dose courses: 1
  CTC-grade 2 ALT: patients developing toxicity in first course: 0
  CTC-grade 2 AST: courses causing toxicity, all full-dose courses: 1
  CTC-grade 2 AST: patients developing toxicity in first course: 1
  CTC-grade 2 GGT: courses causing toxicity, all full-dose courses: 0
  CTC-grade 2 GGT: patients developing toxicity in first course: 0
  CTC-grade 3 ALT: courses causing toxicity, all full-dose courses: 2
  CTC-grade 3 ALT: patients developing toxicity in first course: 1
  CTC-grade 3 AST: courses causing toxicity, all full-dose courses: 1
  CTC-grade 3 AST: patients developing toxicity in first course: 0
  CTC-grade 3 GGT: courses causing toxicity, all full-dose courses: 4
  CTC-grade 3 GGT: patients developing toxicity in first course: 1
[2]
  CTC-grade 1 ALP: courses causing toxicity, all full-dose courses: 3
  CTC-grade 1 ALP: patients developing toxicity in first course: 0
  CTC-grade 1 ALT: courses causing toxicity, all full-dose courses: 2
  CTC-grade 1 ALT: patients developing toxicity in first course: 2
  CTC-grade 1 AST: courses causing toxicity, all full-dose courses: 0
  CTC-grade 1 AST: patients developing toxicity in first course: 0
  CTC-grade 1 GGT: courses causing toxicity, all full-dose courses: 0
  CTC-grade 1 GGT: patients developing toxicity in first course: 0
  CTC-grade 1 creatinine: courses causing toxicity, all full-dose courses: 1
  CTC-grade 1 creatinine: patients developing toxicity in first course: 1
  CTC-grade 2 ALP: courses causing toxicity, all full-dose courses: 1
  CTC-grade 2 ALP: patients developing toxicity in first course: 0
  CTC-grade 2 ALT: courses causing toxicity, all full-dose courses: 1
  CTC-grade 2 ALT: patients developing toxicity in first course: 1
  CTC-grade 2 AST: courses causing toxicity, all full-dose courses: 1
  CTC-grade 2 AST: patients developing toxicity in first course: 1
  CTC-grade 2 GGT: courses causing toxicity, all full-dose courses: 0
  CTC-grade 2 GGT: patients developing toxicity in first course: 0
  CTC-grade 2 bilirubin: courses causing toxicity, all full-dose courses: 1
  CTC-grade 2 bilirubin: patients developing toxicity in first course: 1
  CTC-grade 3 ALT: courses causing toxicity, all full-dose courses: 1
  CTC-grade 3 ALT: patients developing toxicity in first course: 0
  CTC-grade 3 AST: courses causing toxicity, all full-dose courses: 2
  CTC-grade 3 AST: patients developing toxicity in first course: 1
  CTC-grade 3 GGT: courses causing toxicity, all full-dose courses: 1
  CTC-grade 3 GGT: patients developing toxicity in first course: 1
[3]
  CTC-grade 1 ALP: courses causing toxicity, all full-dose courses: 1
  CTC-grade 1 ALP: patients developing toxicity in first course: 1
  CTC-grade 1 ALT: courses causing toxicity, all full-dose courses: 0
  CTC-grade 1 ALT: patients developing toxicity in first course: 0
  CTC-grade 1 AST: courses causing toxicity, all full-dose courses: 3
  CTC-grade 1 AST: patients developing toxicity in first course: 0
  CTC-grade 1 GGT: courses causing toxicity, all full-dose courses: 6
  CTC-grade 1 GGT: patients developing toxicity in first course: 2
  CTC-grade 1 creatinine: courses causing toxicity, all full-dose courses: 3
  CTC-grade 1 creatinine: patients developing toxicity in first course: 2
  CTC-grade 2 ALT: courses causing toxicity, all full-dose courses: 3
  CTC-grade 2 ALT: patients developing toxicity in first course: 0
  CTC-grade 2 AST: courses causing toxicity, all full-dose courses: 1
  CTC-grade 2 AST: patients developing toxicity in first course: 1
  CTC-grade 2 GGT: courses causing toxicity, all full-dose courses: 0
  CTC-grade 2 GGT: patients developing toxicity in first course: 0
  CTC-grade 2 creatinine: courses causing toxicity, all full-dose courses: 4
  CTC-grade 2 creatinine: patients developing toxicity in first course: 1
  CTC-grade 3 ALT: courses causing toxicity, all full-dose courses: 2
  CTC-grade 3 ALT: patients developing toxicity in first course: 2
  CTC-grade 3 GGT: courses causing toxicity, all full-dose courses: 1
  CTC-grade 3 GGT: patients developing toxicity in first course: 1
